Results from patent US20080146499A1, “Identification of the Precise Amino Acid Sequence of the Epitope Recognized by the Potent Neutralizing Human Anti-Hiv-1 Monoclonal Antibody Igg1b12” (priority 2005, published 2008).
No end group written: not given here. *: point of attachment. Biotin = O=C1N[C@H]2[C@H](CS[C@H]2CCCCC(=O)*)N1

How the values were obtained:
IgG1b12 antibody = assay: Synthetic gp120 peptide binding to bead-linked IgG1b12, measured by mass spectrometry; set-up: species or system human; details: synthetic peptides as starting material; FIG. 5
Protocol: The antibody was linked to cyanogen-bromide activated sepharose beads (Sigma-Aldrich, Oakville, Ontario). Epitope excision was performed to include potential conformational epitopes. The antibody-bead mixture was incubated with either MN or IIIB HIV-1 gp120 (ImmunoDiagnostics, Inc. Woburn, Mass.) or synthetic HIV-1 gp120 peptides (United Biochemical Research, Inc, Seattle, Wash., USA) for 2 hours under physiological conditions. After several washes, trypsin (Calbiochem-Novabiochem Corporation, San Diego, Calif., USA), or Glu-C (Roche Diagnostics Canada. Laval, Quebec) enzyme digests were performed. Unbound, digested material was washed away. Antibody-bound fragments protected from digestion were analyzed by mass spectrometry. Bead+antibody+peptide complex were spotted on a gold plate along with DHB matrix (Sigma-Aldrich, Oakville, Ontario) (3,4). The sample was analyzed on the prototypic QqTOF mass spectrometer by matrix-assisted laser desorption/ionization.
Epitope mapping experiments were performed using synthetic peptides. One peptide, the “N-term” (amino terminus) peptide was tested for it's binding to IgG1b12. The N-term sequence is as follows: [sequence]. A second peptide covered the CD4 binding site, including the isoleucine (I) residue.

[1] = target: biotinylated N-term peptide (biotin-…) (HIV-1); assay: antigen capture ELISA, plates coated with IgG1 b12, biotinylated peptide detected with streptavidin alkaline phosphatase; reference: scrambled peptide
N terminal peptide = details: i.p. immunizations days 1, 15, 30, 45, 60; sera day 67; compared to control mice; FIG. 13 B
Protocol: For immunogenicity studies, 4 groups of 4 BALB/c mice (16 total) were immunized intraperitoneally (i.p.) 5 times over 2 months. The first group of mice received PBS plus Freund's adjuvant in each immunization, and the second group received 10-50 kg gp120. The third and fourth groups received 10 μg biotinylated peptide (group 3 received N-term, group 4, scrambled) linked to avidin.
ELISAs to detect Ab responses in mice were carried out by coating 96 well plates with 2.5 μg/ml gp120 or 5 μg/ml biotinylated peptide overnight at 4° C. Blood was obtained by venous tail puncture, serum was obtained by collecting the supernatant of blood that had been incubated at 4° C. for one hour and centrifuged in an Eppendorf microcentrifuge (Centrifuge 5417C, Brinkmann Instruments, Ltd. Mississauga, ON) twice for 30 minutes at maximum speed. Serum was diluted at 1/50 down in doubling dilutions and incubated on plates for 2 hours at 37° C., washed, and HRP-goat anti-mouse secondary antibody (Southern Biotechnology Associates, Inc., Birmingham, Ala.) was added. ABTS substrate (Roche Diagnostics Canada, Laval, PQ) was used for detection. Plates were read at 405 nm on the Spectramax Plus.

## KLWVTVYYGVPVWKEATTTLFCASDAKAYDTE [amino terminus]
IgG1b12 antibody
  recognition of synthetic peptide by IgG1b12: specifically recognizes

## IgG1b12 human monoclonal antibody
[1]
  fold binding against the scrambled peptide: 4 times

## Biotin-LWVTVYYGVPVWKEATTTLFCASDAK [Nterm peptide]
IgG1 b12; antigen capture ELISA
  binding to IgG1 b12 relative to the scrambled peptide: 4 times
IgG1 b12; plates coated with 2.5 μg/ml IgG1 b12, serially diluted biotinylated peptide, FIG. 11
  peptide binding to IgG1 b12: bound IgG1 b12, and this binding was dose dependant
gp120; BALB/c mice, biotinylated peptide linked to avidin, i.p.
  immunogenicity in the mouse model: immunogenic
gp120; i.p. immunizations days 1, 15, 30, 45, 60, sera day 67, compared to control mice, FIG. 13 A
  serum antibodies binding whole gp120: contains antibodies capable of binding both whole gp120 and N-terminal peptide
N terminal peptide
  serum antibodies binding N-terminal peptide: contains antibodies capable of binding both whole gp120 and N-terminal peptide
